Assay results reported in US20070225240A1, “Screening Assay and Treatment” (priority 2003, published 2007).
Where two headings read alike, the source gives them in different places.

Key:
[1] = system: ASPP2; conditions: cells treated with UO126, cell line not stated
[2] = system: ASPP2; conditions: MCF7, 20% FCS and EGF, cycloheximide 50 μg/ml, with versus without UO126
Description: (§1) Wild-type ASPP2 (A) or mutant ASPP2 (S827A) (B) were transfected in Saos2 cells in the presence or absence of H-rasv12. 16 hours after transfection, the cells were treated with cycloheximide (50 μg/ml) and lysates were made at the times indicated after cycloheximide treatment. The expression of ASPP2 and H-rasV12 were detected with antibodies V5 or HA, respectively. Actin was used as a loading control. (C) MCF7 cells were starved of serum for 24 hours in 0.5% FCS before treatment with 50 μg/ml cycloheximide (CHX) and 20% FCS and EGF, in the presence (right panel) or absence (left panel) of UO126 for the times indicated. 4 mg of lysate was immunoprecipitated with anti-ASPP2 antibody DX54.10 and the presence of ASPP2 was detected by Western blot with the polyclonal ASPP2/77 antibody (top lanes). Phosphorylated MAPK was detected with phospho-specific MAPK antibody and the total MAPK was detected with a MAPK antibody. The intensity of the. ASPP2 protein immunoprecipitated was quantified and the bands at 0 hours of CHX addition was set as 100 for both cells, as shown by the graph (right panel). (D) MDA Panc3 cells were treated with 50 μg/ml cycloheximide, 20 μM UO126 or both cycloheximide and UO126 for the times indicated. The lysate was resolved on SDS-PAGE gels and ASPP1 and ASPP2 protein levels were detected with mAbASPP1.54.2 and DX54.10 antibodies, respectively, and Mcl-1 was detected with an anti-Mcl1 polyclonal antibody.
(§2) Cells were either transfected with the appropriate expression plasmids or treated with 20 ng/ml EGF and 20 μM UO126 as indicated, the day prior to cycloheximide treatment. Cycloheximide was added to cells at a final concentration of 50 μg/ml in the appropriate medium. Cells were harvested and lysed at the time points indicated.

[3] = system: ASPP1 and ASPP2
Description: as §1, §2

[4] = system: transactivation function of p53; experiment: Transactivation assay, bax-luciferase reporter, Saos2 cells; assay type: cell-based; conditions: EGF 20 ng/ml + 20% FCS, UO126 20 μM
Description: FIG. 27 Endogenous MAPK is necessary for ASPP1 and ASPP2 to stimulate the activity of p53. (A) Saos2 cells were co-transfected with bax-luciferase, ASPP2 and p53. After transfection, medium containing EGF (20 ng/ml) and 20% FCS were added to the cells, in the presence or absence of the MAPK inhibitor UO126 (20 μM). The negative control contained an equal volume of DMSO. […] (B) The putative MAPK phosphorylation sites of ASPP1 and ASPP2 were mutated to alanine, to generate ASPP1 (S671A), ASPP1 (S746), ASPP2 (S698A) and ASPP2 (S827A). Wild-type and mutant ASPP2 (B) or ASPP1 (C) were co-transfected with p53 and Bax-luciferase reporter in the presence or absence of RafCX (B) or K-rasV12 (C) in Saos2 cells, as indicated. Expression levels of ASPP1, p53 and K-rasV12 are shown in the right panel. PCNA was used as a loading control. The graph represents the fold over p53 and ASPP1 or ASPP2 taken from three independent experiments. FCS, foetal calf serum; EGF, epidermal growth factor; and
Saos2 cells (7×10^5) were plated 24 hours prior to transfection in 6-cm-diameter dishes. All transactivation assays contained 1 μg of reporter plasmid. […] The fold increase of p53 and ASPP by HRasV12/K-RasV12/RafCX was determined by the activity of p53 and ASPP in combination with RasV12/RafCX divided by the activity of p53 and ASPP alone.

[5] = MDA Panc3, cycloheximide 50 μg/ml + UO126 20 μM compared to cycloheximide alone

SMILES: N#CC(=C(/N)Sc1ccccc1N)/C(C#N)=C(/N)Sc1ccccc1N [UO126]
- ASPP2 protein levels [1]: decrease in ASPP2 protein levels
- ASPP2 protein levels [2]: significantly decreased
- ASPP1 expression levels [3, 5]: significantly decreased
- ASPP2 expression levels [3, 5]: significantly decreased
- Mcl-1 stability (control) ([3]; MDA Panc3, cycloheximide, presence or absence of UO126): no difference in its stability
- transactivation function of p53 when ASPP2 was present ([4]; p53 + ASPP2): significantly inhibited
- transactivation function of p53 alone ([4]; p53 without ASPP2): small effect
